Measurements as given in patent US9109001B2, “3′,5′-cyclic phosphoramidate prodrugs for HCV infection” (priority 2012, dated 2015).

Columns and labels:
[1] = Cytotoxicity evaluation (CellTiter-Blue Cell Viability Assay); assay type: cell-based, human; details: human, Zluc cells, read-out: HCV Replicon CC50
[2] = test system: Huh-7 cells; experiment: Release of active metabolite in Huh-7 cells; assay type: in vitro ADME, human; details: 10 μM test compound
Description: Assay for the Release of Active Metabolite in Huh-7 Cells. Huh-7 cells were plated in 1 mL culture medium (DMEM, containing glucose, L-glutamine and sodium pyruvate, 10% FBS, 100 IU/mL penicillin, 100 μg/mL streptomycin, 2 mM GlutaMAX, 1% MEM non-essential amino acids) at the concentration 0.8, 0.4 and 0.2 million cells per well on 6 well plates for 24, 48 and 72 hr treatment, respectively. Plated cells were incubated overnight at 37° C. in an incubator.
The following morning test compound was diluted to 20 μM from a stock solution in DMSO in fresh culture medium pre-warmed to 37° C. and 1 mL of the solution/well was added to cells. A final medium volume per well was 2.0 mL, test compound concentration in well was 10 μM and final DMSO concentration was 0.1%.
After 24, 48 or 72 hr, the medium was carefully removed and cell monolayers were washed twice with 2 mL ice-cold PBS per well. Following the last wash, all PBS was carefully removed and 1.0 mL of extraction solution (ice-cold 70% methanol) added. The plate was tightly covered with Parafilm, plastic plate cover and Parafilm again and an intracellular content was extracted at −20° C. for 24 hr.
After 24 hr extracts were transferred into polypropylene microfuge tubes and dry on a refrigerated centrivap concentrator. Dry residues were reconstituted in 250 μL of HPLC-grade water and centrifuged at 16,000×g for 10 min. Aliquots (100 μL each) of the supernatants were transferred into a 96 well plate and internal standard (4 ng/mL final concentration) was added as the internal standard (IS) for LC-MS/MS analysis.

[3] = test system: Zluc cells; experiment: Cytotoxicity evaluation (CellTiter-Blue Cell Viability Assay); assay type: cell-based, human; details: read-out: HCV Replicon CC50

Question: What does the source list for `CCOc1nc(N)nc2c1ncn2[C@@H]1O[C@@H]2COP(=O)(N[C@@H](C)C(=O)OC(C)C)O[C@H]2[C@@]1(C)F` (single isomer, unassigned) [Compound 1 Diastereomer 1]?
Answer: CC50 [1]: > 50 µM; Huh-7 TP Cmax (pmol/mill cells) [2]: 283 pmol/mill cells

Question: For `CCOc1nc(N)nc2c1ncn2[C@@H]1O[C@@H]2COP(=O)(N[C@@H](C)C(=O)OC(C)C)O[C@H]2[C@@]1(C)F` (single isomer, unassigned) [Compound 1 Diastereomer 2], which CC50 [3] is on record?
Answer: > 50 µM
